Laboratory results as given in US8507510B2, “Sulfoximine-substituted pyrimidines as CDK- and/or VEGF inhibitors, their production and use as pharmaceutical agents” (Bayer Intellectual Property GmbH, priority 2003, dated 2013).

Columns and labels:
[1] = tested on: MaTu-ADR; assay: Proliferation assay, MaTu-ADR; format: cell-based, human; details: MaTu-ADR cells, 4 days, crystal violet
Text: (§1) Cultivated human tumor cells (MCF7, […] human breast cancer cells, related to ATCC HTB22; NCI-H460, human non-small-cell lung cancer cells, ATCC HTB-177, HCT 116, human colon cancer cells, ATCC CCL-247; DU 145, hormone-independent human prostate cancer cells, ATCC HTB-81; MaTu-MDR, hormone-independent, multiple pharmaceutical agent-resistant human breast cancer cells, EPO-GmbH, Berlin) were flattened out at a density of about 5000 cells/measuring point, depending on the growth rate of the respective cells, in a 96-well multititer plate in 200 μl of the corresponding growth medium. After 24 hours, the cells of one plate (zero-point plate) were colored with crystal violet (see below), while the medium of the other plates was replaced by fresh culture medium (200 μl), to which the test substances were added in various concentrations (0 μm, as well as in the range of 0.01-30 μm; the final concentration of the solvent dimethyl sulfoxide was 0.5%). The cells were incubated for 4 days in the presence of test substances. The cell proliferation was determined by coloring the cells with crystal violet: the cells were fixed by adding 20 μl/measuring point of an 11% glutaric aldehyde solution for 15 minutes at room temperature. After three washing cycles of the fixed cells with water, the plates were dried at room temperature. The cells were colored by adding 100 μl/measuring point of a 0.1% crystal violet solution (the pH was set at 3 by adding acetic acid). After three washing cycles of the colored cells with water, the plates were dried at room temperature. The dye was dissolved by adding 100 μl/measuring point of a 10% acetic acid solution. The extinction was determined by photometry at a wavelength of 595 nm The change of cell growth, in percent, was calculated by normalization of the measured values to the extinction values of the zero-point plate (=0%) and the extinction of the untreated (0 μm) cells (=100%).

[2] = tested on: DU145; assay: Proliferation assay, DU145; format: cell-based, human; details: DU145 cells, 4 days, crystal violet
Text: as §1

[3] = tested on: MCF7; assay: Proliferation assay, MCF7; format: cell-based, human; details: MCF7 cells, 4 days, crystal violet
Text: as §1

[4] = tested on: H460; assay: Proliferation assay, H460; format: cell-based, human; details: H460 cells, 4 days, crystal violet
Text: as §1

[5] = biological target: CDK2/CycE (Homo sapiens (Human), UniProt P24941); assay: CDK2/CycE kinase assay; format: biochemical; details: histone IIIS substrate, 0.5 μm ATP
Procedure: Recombinant CDK2- and CycE-GST-fusion proteins, purified from baculovirus-infected insect cells (Sf9), were purchased by ProQinase GmbH, Freiburg. Histone IIIs, which was used as a kinase substrate, was purchased by the Sigma Company.
CDK2/CycE (50 ng/measuring point) was incubated for 15 minutes at 22° C. in the presence of various concentrations of test substances (0 μm, as well as within the range of 0.01-100 μm) in assay buffer [50 mmol of tris/HCl, pH 8.0, 10 mmol of MgCl2, 0.1 mmol of Na ortho-vanadate, 1.0 mmol of dithiothreitol, 0.5 μm of adenosine triphosphate (ATP), 10 μg/measuring point of histone IIIS, 0.2 μCi/measuring point of ^33P-gamma ATP, 0.05% NP40, 12.5% dimethyl sulfoxide]. The reaction was stopped by adding EDTA solution (250 mmol, pH 8.0, 14 μl/measuring point).
From each reaction batch, 10 μl was applied to P30 filter strips (Wallac Company), and non-incorporated ^33P-ATP was removed by subjecting the filter strips to three washing cycles for 10 minutes each in 0.5% phosphoric acid. After the filter strips were dried for one hour at 70° C., the filter strips were covered with scintillator strips (MeltiLex™ A, Wallac Company) and baked for one hour at 90° C. The amount of incorporated ^33P (substrate phosphorylation) was determined by scintillation measurement in a gamma-radiation measuring device (Wallac).

IC50 ([2]; Homo sapiens, DU-145, 96 h)	IC50 ([3]; Homo sapiens, MCF7, 96 h)	IC50 [3]	Compound	also measured
0.09 µM	–	–	C[C@@H](Nc1nc(Nc2ccc(S(=N)(=O)CCO)cc2)ncc1Br)C(C)(C)O (mixture of isomers) [Example 1.14, (RS)-S-[4-({5-bromo-4-[(R)-(2-hydroxy-1,2-dimethylpropyl)amino]pyrimidin-2-yl}amino)phenyl]-S-(2-hydroxyethyl)-sulfoximide]	IC50 ([1]; Homo sapiens, 96 h): 0.11 µM
–	< 0.1 µM	–	C[C@@H](O)[C@@H](C)Nc1nc(Nc2ccc(S(=N)(=O)CCO)cc2)ncc1Br (mixture of isomers) [Example 1.18, (RS)-S-[4-({5-bromo-4-[(1R,2R)-(2-hydroxy-1-methyl-propyl)amino]pyrimidin-2-yl}amino)phenyl]-S-(2-hydroxyethyl)sulfoximide]	–
–	–	0.06 µM	COc1cc(Nc2ncc(Br)c(N[C@H](C)[C@@H](C)O)n2)ccc1S(C)(=N)=O (mixture of isomers) [Example 1.26, (RS)-S-[4-({5-bromo-4-[(1R,2R)-(2-hydroxy-1-methylpropyl)amino]pyrimidin-2-yl}amino)-2-methoxyphenyl]-S-methyl sulfoximide]	–
–	–	0.17 µM	CN=S(C)(=O)c1ccc(Nc2ncc(Br)c(N[C@H](C)[C@@H](C)O)n2)cc1 (mixture of isomers) [Example 1.29, (RS)-S-[4-({5-bromo-4-[(1R,2R)-(2-hydroxy-1-methylpropyl)amino]pyrimidin-2-yl}amino)phenyl]-N,S-dimethyl-sulfoximide]	–
–	–	0.17 µM	CN=S(C)(=O)c1ccc(Nc2ncc(Br)c(N[C@H](C)[C@@H](C)O)n2)cc1 (mixture of isomers) [Example 1.30, (RS)-S-[4-({5-bromo-4-[(1R,2R)-(2-hydroxy-1-methylpropyl)amino]pyrimidin-2-yl}amino)phenyl]-N,S-dimethyl-sulfoximide]	–
0.17 µM	0.2 µM	–	COC[C@@H](Nc1nc(Nc2ccc(S(C)(=N)=O)cc2)ncc1Br)[C@@H](C)O (mixture of isomers) [Example 1.46, (RS)-S-{4-[(5-bromo-4-{[(1R,2R)-2-hydroxy-1-(methoxymethyl)-propyl]amino}pyrimidin-2-yl)amino]phenyl}-S-methyl sulfoximide]	IC50 ([1]; Homo sapiens, 96 h): 0.2 µM; IC50 ([4]; Homo sapiens, NCI-H460, 96 h): 0.11 µM
–	0.3 µM	–	CCS(=N)(=O)c1ccc(Nc2ncc(Br)c(N[C@H](COC)[C@@H](C)O)n2)cc1 (mixture of isomers) [Example 1.48, (RS)—S-{4-[(5-bromo-4-{[(1R,2R)-2-hydroxy-1-(methoxymethyl)-propyl]amino}pyrimidin-2-yl)amino]phenyl}-S-ethyl sulfoximide]	–
–	–	0.3 µM	CCS(=N)(=O)c1ccc(Nc2ncc(Br)c(N[C@H](COC)[C@@H](C)O)n2)cc1 (mixture of isomers) [Example 1.49, (RS)-S-{4-[(5-bromo-4-{[(1R,2R)-2-hydroxy-1-(methoxymethyl)-propyl]amino}pyrimidin-2-yl)amino]phenyl}-S-ethyl sulfoximide]	IC50 [1]: 0.6 µM; IC50 [2]: 0.3 µM; IC50 [4]: 0.4 µM
–	0.08 µM	–	CCS(=N)(=O)c1ccc(Nc2ncc(Br)c(N[C@H](C)[C@@H](C)O)n2)cc1 (mixture of isomers) [Example 1.51, (RS)—S-[4-({5-bromo-4-[(1R,2R)-(2-hydroxy-1-methylpropyl)amino]pyrimidin-2-yl}amino)phenyl]-S-ethyl sulfoximide]	–
–	–	< 0.1 µM	CCS(=N)(=O)c1ccc(Nc2ncc(Br)c(N[C@H](C)[C@@H](C)O)n2)cc1 (mixture of isomers) [Example 1.52, (RS)-S-[4-({5-bromo-4-[(1R,2R)-(2-hydroxy-1-methylpropyl)amino]pyrimidin-2-yl}amino)phenyl]-S-ethyl sulfoximide]	–
0.19 µM	–	0.11 µM	CCS(=N)(=O)c1ccc(Nc2ncc(Br)c(N[C@H](C)C(C)(C)O)n2)cc1 (mixture of isomers) [Example 1.54, (RS)—S-[4-({5-bromo-4-[(R)-(2-hydroxy-1,2-dimethylpropyl)amino]pyrimidin-2-yl}amino)phenyl]-S-ethyl sulfoximide]	IC50 [4]: 0.12 µM
–	–	0.3 µM	CCS(=N)(=O)c1ccc(Nc2ncc(Br)c(N[C@H](C)C(C)(C)O)n2)cc1 (mixture of isomers) [Example 1.55, (RS)-S-[4-({5-bromo-4-[(R)-(2-hydroxy-1,2-dimethylpropyl)amino]pyrimidin-2-yl}amino)phenyl]-S-ethyl sulfoximide]	IC50 [1]: 0.15 µM; IC50 [2]: 0.3 µM; IC50 [4]: 0.3 µM
–	–	–	Cc1cc(Nc2ncc(Br)c(N[C@H](C)C(C)(C)O)n2)ccc1S(C)(=N)=O (mixture of isomers) [Example 1.57, (RS)—S-[4-({5-bromo-4-[(R)-(2-hydroxy-1,2-dimethylpropyl)amino]pyrimidin-2-yl}amino)-2-methylphenyl]-S-methyl sulfoximide]	IC50 [1]: 0.09 µM; IC50 [2]: 0.11 µM; IC50 [4]: 0.12 µM
–	–	0.06 µM	Cc1cc(Nc2ncc(Br)c(N[C@H](C)C(C)(C)O)n2)ccc1S(C)(=N)=O (mixture of isomers) [Example 1.58, (RS)-S-[4-({5-bromo-4-[(R)-(2-hydroxy-1,2-dimethylpropyl)amino]pyrimidin-2-yl}amino)-2-methylphenyl]-S-methyl sulfoximide]	IC50 [1]: 0.04 µM; IC50 [2]: 0.03 µM; IC50 [4]: 0.03 µM
–	< 0.1 µM	–	C[C@@H](O)[C@@H](C)Nc1nc(Nc2ccc(S(=N)(=O)CCO)cc2)ncc1Br (single isomer, unassigned) [Example 1.19]	–
0.13 µM	0.06 µM	–	COc1cc(Nc2ncc(Br)c(N[C@H](C)[C@@H](C)O)n2)ccc1S(C)(=N)=O (single isomer, unassigned) [Example 1.27]	IC50 ([4]; Homo sapiens, NCI-H460, 96 h): 0.02 µM
0.17 µM	0.15 µM	–	C[C@@H](Nc1nc(Nc2ccc(S(C)(=N)=O)cc2)ncc1Br)C(C)(C)O (single isomer, unassigned) [Example 1.42]	IC50 ([1]; Homo sapiens, 96 h): < 0.1 µM; IC50 ([4]; Homo sapiens, NCI-H460, 96 h): < 0.1 µM
0.6 µM	0.6 µM	–	COC[C@@H](Nc1nc(Nc2ccc(S(C)(=N)=O)cc2)ncc1Br)[C@@H](C)O (single isomer, unassigned) [Example 1.47]	IC50 ([1]; Homo sapiens, 96 h): 0.8 µM; IC50 [5]: 0.006 µM; IC50 ([4]; Homo sapiens, NCI-H460, 96 h): 0.6 µM
–	1.2 µM	–	CCS(=N)(=O)c1ccc(Nc2ncc(Br)c(N[C@H](COC)[C@@H](C)O)n2)cc1 (single isomer, unassigned) [Example 1.50]	–
–	0.3 µM	–	CCS(=N)(=O)c1ccc(Nc2ncc(Br)c(N[C@H](C)[C@@H](C)O)n2)cc1 (single isomer, unassigned) [Example 1.53]	IC50 [5]: 0.004 µM
–	0.02 µM	–	CCS(=N)(=O)c1ccc(Nc2ncc(Br)c(N[C@H](C)C(C)(C)O)n2)cc1 (single isomer, unassigned) [Example 1.56]	IC50 ([1]; Homo sapiens, 96 h): 0.05 µM; IC50 ([4]; Homo sapiens, NCI-H460, 96 h): 0.1 µM
< 0.1 µM	0.11 µM	–	Cc1cc(Nc2ncc(Br)c(N[C@H](C)C(C)(C)O)n2)ccc1S(C)(=N)=O (single isomer, unassigned) [Example 1.59]	IC50 ([1]; Homo sapiens, 96 h): < 0.1 µM; IC50 ([4]; Homo sapiens, NCI-H460, 96 h): < 0.1 µM
